Assays:
Assay type in all cases: in vivo, Mice
[1] = tested on: local immune cells at the injection site (muscle); assay: Effect of RvE1 on the local immune cells profile induced by adjuvants injection (flow cytometry of muscle cells); details: muscles at 24 h
Method: Mice (n=6/gr) were injected intramuscularly with PBS, AS03 adjuvant (oil-in-water emulsion) or AS01B adjuvant (MPL+QS21 in liposomes). 1 h and 6 h later, synthetic RvE1 (0.2 μg/dose) or PBS was administered also intramuscularly. Muscles were collected at 24 h following adjuvant/PBS administration and local immune cells were extracted. The cells were stained with the following antibodies: Lytic, SiglecF, CD90.2, Ly6G, CD11b, CD11c, HLA DR, CD45 and CD19 and analysed by flow cytometry. The cell recruitment is expressed in number of cells per muscle. The plotted area represents the mean obtained for a specific subpopulation. A 2-way ANOVA was performed to compare the different groups. *: p<0.05. The chemical structure of the synthetic RvE1 used in the present experiment is identical to the chemical structure of RvE1 disclosed in Buckley et al. (“Proresolving Lipid Mediators and Mechanisms in the Resolution of Acute Inflammation”, 2014, Immunity 40: 315-327).

[2] = tested on: cytokines (TNFα, IL-6, IL1b and IFNγ) and chemokine (G-CSF, MCP-1, KC and MIP-1a) levels in muscle; assay: Effect of RvE1 on the local cytokine profile induced by adjuvants injection (CBA on muscle homogenates)
Method: Mice (n=6/gr) were injected intramuscularly with PBS, adjuvant AS03 or adjuvant AS01B. 1 h and 6 h later, the same synthetic RvE1 as the one used in Example 1 (0.2 μg/dose), or PBS was administered also intramuscularly. Muscles were collected at 4 h (A) and 24 h (B) following adjuvant or PBS administration and frozen at −70° C. Muscles were thawed and homogenized and cytokines (TNFα, IL-6, IL1b and IFNγ) and chemokine (G-CSF, MCP-1, KC and MIP-1a) levels in the cleared homogenates were measured by CBA (Becton Dickinson). The cytokine/chemokine concentrations are expressed in pg/mL. The plotted area represents the mean obtained for a specific cytokine/chemokine. A 2-way ANOVA was performed to compare the different groups. *: p<0.05 (See FIG. 3).

[3] = tested on: Anti-OVA or anti-HBs antibodies; assay: Effect of MaR1 on specific antibody responses induced by vaccine injection (ELISA on sera); details: MaR1 5 ng/dose intramuscularly 1 h prior to OVA and HBS antigens in AS01B; vs antigens and adjuvant alone
Method: Mice (n=30/gr) were injected intramuscularly with the same synthetic MaR1 as the one used in Example 2 (5 ng/dose), or PBS as a control. 1 h later, mice were vaccinated with OVA and HBS antigens re-suspended in adjuvant AS01B or in PBS. This vaccination scheme was repeated 15 days later. Sera were taken 7 days after the second immunization. Anti-OVA (A) or anti-HBs (B) antibodies were detected by ELISA. Antibody titers are expressed in ng/mL. Each point represents an individual value; the bar represents the mean+/−SD. (See FIG. 6).

[4] = tested on: cytokines (TNFα, IL-6, IL1b and INFγ) and chemokine (G-CSF, MCP-1, KC and MIP-1a) levels in muscle; assay: Effect of MaR1 on the local cytokine profile induced by adjuvant injection (CBA on muscle homogenates); details: MaR1 5 ng/dose intramuscularly 1 h prior to AS01B; 4 h post-injection of the MaR1
Method: Mice (n=6/gr) were injected intramuscularly with the same synthetic MaR1 as the one used in Example 2 (5 ng/dose), or PBS as a control. 1 h later, mice received intramuscularly adjuvant AS01B or PBS. Muscles were collected at 4 h and 24 h following MaR1/PBS administration and frozen at −70° C. Muscles were thawed and homogenized and cytokines (TNFα, IL-6, IL1b and INFγ) and chemokine (G-CSF, MCP-1, KC and MIP-1a) levels in the cleared homogenates were measured by CBA (Becton Dickinson). The cytokine/chemokine concentrations are expressed in pg/mL. The plotted area represents the mean obtained for a specific cytokine/chemokine. A 2-way ANOVA was performed to compare the different groups. *: p<0.05 (See FIG. 4).

[5] = tested on: local immune cells at the injection site (muscle); assay: Effect of MaR1 on the local immune cells profile induced by adjuvant injection (flow cytometry of muscle cells); details: MaR1 5 ng/dose intramuscularly 1 h prior to AS01B
Method: Mice (n=6/gr) were injected intramuscularly with synthetic 7-Maresin-1 (MaR1) (5 ng/dose) or PBS as a control. 1 h later, mice received intramuscularly adjuvant AS01B or PBS. Muscles were collected at 4 h and 24 h following 7-Maresin-1/PBS administration and local immune cells were extracted. The cells were stained with the following antibodies: Lytic, SiglecF, CD90.2, Ly6G, CD11b, CD11c, HLA DR, CD45 and CD19 and analysed by flow cytometry. The cell recruitment is expressed in number of cells per muscle. The plotted area represents the mean obtained for a specific subpopulation. A 2-way ANOVA was performed to compare the different groups. *: p<0.05. The chemical structure of the synthetic MaR1 used in the present experiment is identical to the chemical structure of MaR1 disclosed in Buckley et al. (“Proresolving Lipid Mediators and Mechanisms in the Resolution of Acute Inflammation”, 2014, Immunity 40: 315-327).

[6] = tested on: CD4+ or CD8+ T cells expressing at least 2 cytokines; assay: Effect of MaR1 on specific T cell responses induced by vaccine injection (intracellular cytokine staining of spleen cells); details: MaR1 5 ng/dose intramuscularly 1 h prior to OVA and HBS antigens in AS01B; vs antigens and adjuvant alone
Method: Mice (n=30/gr) were injected intramuscularly with the same synthetic MaR1 as the one used in Example 2 (5 ng/dose) or PBS as a control. 1 h later, mice were vaccinated with OVA (Ovalbumin) and HBS (Hepatitis B Surface) antigens re-suspended in adjuvant AS01B or in PBS. This vaccination scheme was repeated 15 days later. Spleens were removed 7 days after the second immunization, and immune cells were extracted and stimulated overnight with OVA (A) or HBS (B) peptides. After surface staining with anti-CD4 and anti-CD8 antibodies, cells were labeled intra-cellularly with anti-IL-2, anti-IFN-γ and anti-TNF-α and analyzed by flow cytometry. Results are expressed as percentages of CD4+ or CD8+ T cells expressing at least 2 cytokines among the ones tested. Each point represents an individual value, the bar represents the mean+/−SD (see FIG. 5).

SMILES | recruitment of immune cells at the injection site (number of cells per muscle) ([1]; RvE1 0.2 μg/dose intramuscularly 1 h and 6 h after AS01B, vs AS01B alone) | recruitment of immune cells at the injection site (number of cells per muscle) ([1]; RvE1 0.2 μg/dose intramuscularly 1 h and 6 h after AS03, vs AS03 alone) | pattern of immune cells at the injection site ([1]; RvE1 on its own with PBS alone, compared with PBS alone) | modulation of local cytokines/chemokines concentration ([2]; RvE1 0.2 μg/dose intramuscularly after AS01B, 4 h post-injection of the adjuvant) | modulation of local cytokines/chemokines concentration ([2]; RvE1 0.2 μg/dose intramuscularly after AS01B, 24 h post-injection of the adjuvant) | modulation of local cytokines/chemokines concentration ([2]; RvE1 0.2 μg/dose intramuscularly after AS03, 4 h post-injection of the adjuvant) | modulation of local cytokines/chemokines concentration ([2]; RvE1 0.2 μg/dose intramuscularly after AS03, 24 h post-injection of the adjuvant) | anti-HBS antibody response induced by adjuvanted vaccine [3] | anti-OVA antibody response induced by adjuvanted vaccine [3] | modulation of local cytokines/chemokines profile [4] | pattern of immune cells at the injection site ([5]; 4 h post-injection) | pattern of immune cells at the injection site ([5]; 24 h post-injection) | CD4+ T cell response induced by adjuvanted vaccine [6] | CD8+ T cell response induced by adjuvanted vaccine [6]
CC[C@@H](O)/C=C/C=C\C[C@@H](O)/C=C/C=C/C=C\[C@@H](O)CCCC(=O)O [RvE1, Resolvin E1] | The same conclusion holds true | significantly reduced recruitment of all the immune cell types tested | only a minimal effect on the pattern of immune cells | no significant modulating effect was observed | no significant modulating effect was observed | a significant modulating effect was observed | no significant effect was observed | – | – | – | – | – | – | –
CC/C=C\C/C=C\C[C@H](O)\C=C/C=C/C=C/[C@H](O)C/C=C\CCC(=O)O [MaR1, 7-Maresin-1] | – | – | – | – | – | – | – | did not negatively impact the antibody immune response | did not negatively impact the antibody immune response | significant transient modulating effect | may be too early to detect an effect | increase of B cells and T cells recruitment on site | did not negatively impact the T cell immune response | did not negatively impact the T cell immune response

Source: patent publication US11045542B2, “Method of reducing reactogenicity induced by administration of vaccine or immunogenic composition” (GLAXOSMITHKLINE BIOLOGICALS, SA, priority 2015, dated 2021)
